Measured values published in US8846704B2, “Thiopyrimidine-based compounds and uses thereof” (YM Biosciences Austraila Pty Ltd, priority 2007, dated 2014).

Assays:
[1] = target: T1, human JAK3 (Homo sapiens, UniProt P52333); test: Alphascreen tyrosine kinase enzyme assay, JAK3 kinase domain; assay type: biochemical; conditions: read-out: JAK3 IC50_nM
T1 construct: The kinase domain of human JAK3 was amplified; GST (N); made in house; host or cells: Sf9 insect cells (baculovirus)
Outline: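 GST-affinity-purified human JAK3 kinase domain (baculovirus/Sf9) was pre-incubated 20 min with compound ([…]) in HEPES pH 7.5 buffer with MgCl2, vanadate and Tween 20. Biotinylated peptide substrate ([…]) and ATP were then added; phosphotyrosine was detected by AlphaScreen PY100 acceptor and streptavidin donor beads after 2–3 h.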

[2] = system: CTLL2; test: Cellular screening, CTLL2 cells, Alamar Blue; assay type: cell-based; conditions: Mus musculus, CTLL-2, read-out: CTLL2 IC50_nM
Experimental: (§1) Cell suspensions were prepared by harvesting cells from culture (the cells used in this test were in late log phase growth with high viability.) Cells were diluted in the appropriate growth medium, as described above, to 1.1× final concentration (from 50,000 cell/mL to 200,000 cell/mL, depending on cell line).
(§2) Compounds to be tested were added (10 μL, 10× final concentration) to a flat bottomed 96-well plate. The cellular suspension (90 μL per well) was then added, and the plate incubated for 40 hr at 37° C., 5% CO2. Alamar Blue 10 μL per well was added and the plates returned to the incubator for a further 4-6 hours. The plates were then read at 544 nm.

[3] = system: BaF3 wild-type cells; test: Cellular screening, BaF3 wild-type cells, Alamar Blue; assay type: cell-based; conditions: Mus musculus, 40 hr, read-out: BAF3wt IC50_nM
Experimental: (§3) For screening purposes, compounds were diluted in 96 well plates at a concentration of 20 μM. Plates were warmed at 37° C. for 30 minutes before the assay was performed.
(§4) The growth factor dependant myelomonocytic cell line BaF3 bearing the pTET-off plasmid (Clontech) was transfected with either pTELJAK2 or pTELJAK3, and the transfected cells were selected for growth-factor independent cell growth. The BaF3 wild-type cells were cultured in DMEM containing 10% FCS, 10% WEHI 3B conditioned medium. The BaF3 TELJAK cells ([…]) were cultured in DMEM 10% Tet-System Approved FBS (without WEHI 3B conditioned medium).
as §1, §2

[4] = target: T2, human JAK2 (Homo sapiens, UniProt O60674); test: Alphascreen tyrosine kinase enzyme assay, JAK2 kinase domain; assay type: biochemical; conditions: read-out: JAK2 IC50_nM
T2 construct: The kinase domain of human JAK2 was amplified; GST (N); made in house; host or cells: Sf9 insect cells (baculovirus)
Outline: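 JAK2 kinase domain expressed in baculovirus/Sf9 and glutathione-affinity purified. Compounds (final […]) pre-incubated 20 min with enzyme in 10 mM HEPES pH 7.5, MgCl2, NaCl, vanadate, 0.1% Tween 20.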

[5] = target: T3, BaF3 TELJAK2 cells (BafT_J2) (Homo sapiens, UniProt O60674); test: Cellular screening, BaF3 TEL:JAK2 cells, Alamar Blue; assay type: cell-based; conditions: 40 hr, read-out: BafT_J2 IC50_nM
T3 construct: fused on or other part: TEL (ETV6) N-terminal part, coding nucleotides 1-487, serves as the oligomerising partner; It is fused through a Sal I site to the JAK2 kinase domain and expressed from pTRE2 in BaF3 cells bearing pTET-off; P41212 (Transcription factor ETV6)
Experimental: as §3
The coding region encompassing nucleotides 1-487 of TEL was amplified by PCR using the oligonucleotides STEL (5′-GGAGGATCCTGATCTCTCTCGCTGTGAGAC-3′) [SEQ ID NO 14] and 3TEL (5′-AGGC GTCGACTTCTTCTTCATGGTTCTG-3′) [SEQ ID NO 15] and U937 mRNA as a template. A […] restriction site was incorporated into the STEL primer, and a Sal I restriction site was incorporated into the 3TEL primer. The regions encompassing the kinase domain of JAK2 (nucleotides 2994-3914; JAK2F 5′-ACGC GTCGACGGTGCCTTTGAAGACCGGGAT-3′ [SEQ ID NO 16]; JAK2R 5′-ATAGTTTAGCGGCCGCTCAGAATGAAGGTCATTT-3′) [SEQ ID NO 17] and JAK3 (nucleotides 2520-3469; JAK3F 5′-GAAGTCGACTATGCCTGCCAAGACCCCACGATCTT-3′) [SEQ ID NO 18] were generated by PCR using Taq DNA polymerase (Gibco/BRL) and […] as a template. A Sal I restriction site was incorporated into the forward primer of JAK2 and JAK3, a Not I site was incorporated into the JAK2 reverse primer and a Xba I site was added to the reverse primer of JAK3.
A TEL/Jak2 fusion was generated by digestion of the TELPCR product with BamH I/Sal I restriction enzymes, digestion of the JAK2 PCR product with Sal I/Not I restriction enzymes, followed by ligation and subcloning of the ligation product into the mammalian expression Vector pTRE 2 (Clontech), which was prepared by digestion with BamH I-Not I restriction enzymes, to give the TEL/Jak2 fusion plasmid pTELJAK2.
as §4, §1, §2

T3 sequence (O60674 whole entry, change not shown, the tested form may be a part): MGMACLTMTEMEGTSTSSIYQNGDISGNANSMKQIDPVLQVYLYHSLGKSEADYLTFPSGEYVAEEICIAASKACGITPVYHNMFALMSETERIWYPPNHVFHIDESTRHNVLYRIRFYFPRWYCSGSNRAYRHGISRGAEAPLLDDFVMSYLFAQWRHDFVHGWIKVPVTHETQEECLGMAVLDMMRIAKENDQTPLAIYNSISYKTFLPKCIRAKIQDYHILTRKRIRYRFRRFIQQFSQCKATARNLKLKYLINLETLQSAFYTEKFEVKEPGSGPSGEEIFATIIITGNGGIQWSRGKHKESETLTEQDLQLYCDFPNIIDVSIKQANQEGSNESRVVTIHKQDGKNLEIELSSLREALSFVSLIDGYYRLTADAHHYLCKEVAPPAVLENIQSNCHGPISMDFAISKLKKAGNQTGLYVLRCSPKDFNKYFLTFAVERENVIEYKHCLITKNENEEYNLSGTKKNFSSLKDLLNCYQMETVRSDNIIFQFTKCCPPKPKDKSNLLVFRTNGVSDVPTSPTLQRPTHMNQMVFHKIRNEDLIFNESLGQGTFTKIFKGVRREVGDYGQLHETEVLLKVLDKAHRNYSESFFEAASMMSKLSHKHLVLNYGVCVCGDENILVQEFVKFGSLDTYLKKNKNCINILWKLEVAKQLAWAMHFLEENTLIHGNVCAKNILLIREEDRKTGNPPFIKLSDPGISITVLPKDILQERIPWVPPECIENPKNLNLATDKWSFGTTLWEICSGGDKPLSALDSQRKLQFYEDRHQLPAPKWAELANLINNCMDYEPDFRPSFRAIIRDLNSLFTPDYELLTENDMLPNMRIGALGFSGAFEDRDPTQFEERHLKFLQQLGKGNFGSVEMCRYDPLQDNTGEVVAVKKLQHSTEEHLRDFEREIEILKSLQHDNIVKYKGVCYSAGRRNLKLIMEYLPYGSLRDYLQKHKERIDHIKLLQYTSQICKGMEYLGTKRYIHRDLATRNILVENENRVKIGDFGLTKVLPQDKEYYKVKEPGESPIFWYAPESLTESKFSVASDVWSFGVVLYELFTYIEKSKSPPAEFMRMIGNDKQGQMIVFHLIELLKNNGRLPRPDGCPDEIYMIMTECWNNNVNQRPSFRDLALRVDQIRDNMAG
T1 sequence (P52333 822-1111 limits assumed): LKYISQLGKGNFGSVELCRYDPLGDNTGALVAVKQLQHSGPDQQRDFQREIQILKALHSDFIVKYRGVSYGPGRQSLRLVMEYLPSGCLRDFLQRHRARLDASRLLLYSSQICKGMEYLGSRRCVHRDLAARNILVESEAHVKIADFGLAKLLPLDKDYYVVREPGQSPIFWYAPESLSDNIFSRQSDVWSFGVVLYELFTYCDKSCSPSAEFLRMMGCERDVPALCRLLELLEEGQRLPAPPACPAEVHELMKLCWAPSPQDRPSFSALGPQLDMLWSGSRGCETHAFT
T2 sequence (O60674 849-1124 limits assumed): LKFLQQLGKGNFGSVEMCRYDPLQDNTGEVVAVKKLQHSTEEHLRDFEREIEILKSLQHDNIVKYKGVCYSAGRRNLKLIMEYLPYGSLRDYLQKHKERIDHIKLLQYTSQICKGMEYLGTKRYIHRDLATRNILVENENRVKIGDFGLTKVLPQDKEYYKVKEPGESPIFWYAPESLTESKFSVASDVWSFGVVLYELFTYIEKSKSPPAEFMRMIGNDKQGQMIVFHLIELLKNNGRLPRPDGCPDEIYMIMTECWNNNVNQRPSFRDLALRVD

Structure (SMILES)	IC50 [1] [µM]	IC50 [2] [µM]	IC50 [3] [µM]	IC50 [4] [µM]	GI50 [5] [µM]
Cc1cnc(Nc2ccc(N3CCOCC3)cc2)nc1Sc1ccc(N2C(=O)C=C(Br)C2=O)cc1 [Compound 382, 3-bromo-1-(4-(5-methyl-2-(4-morpholinophenylao)pyrimidin-4-ylthio)phenyl)-1H-pyrrole-2,5-dione]	< 0.1	< 20	< 20	> 1	< 20
C=CC(=O)Nc1ccc(Sc2nc(Nc3ccc(N4CCOCC4)cc3)ncc2C)cc1C [Compound 259]	< 0.1	< 1	< 20	> 1	< 20
C=CC(=O)Nc1cccc(Nc2nccc(Sc3ccc(OC)cc3)n2)c1 [Compound 42, N-(3-(4-(4-methoxyphenylthio)pyrimidin-2-ylao)phenyl)acrylamide]	< 0.1	< 5	< 20	> 1	< 20
Cc1cnc(Nc2ccc(N3CCOCC3)cc2)nc1Sc1c(C)cc(N)cc1C [Compound 165, 4-(4-ao-2,6-dimethylphenylthio)-5-methyl-N-(4-morpholinophenyl)pyrimidin-2-ae]	< 0.5	> 20	> 20	> 1	> 20
C=CC(=O)Nc1ccc(Sc2ccnc(Nc3ccc(N4CCOCC4)cc3)n2)cc1 [Compound 25, N-(4-(2-(4-morpholinophenylamino)pyrimidin-4-ylthio)phenyl)acrylamide]	< 0.1	< 1	> 20	> 1	> 20
C=CC(=O)Nc1ccc(Sc2ccnc(Nc3ccc(S(N)(=O)=O)c(OC)c3)n2)cc1 [Compound 374, N-(4-(2-(3-methoxy-4-sulfamoylphenylao)pyrimidin-4-ylthio)phenyl)acrylamide]	< 0.1	< 20	< 5	> 1	< 5
C=CC(=O)Nc1ccc(Sc2nc(Nc3cccc(CO)c3)ncc2C)cc1 [Compound 280, N-(4-(2-(3-(hydroxymethyl)phenylao)-5-methylpyrimidin-4-ylthio)phenyl)acrylamide]	< 0.1	< 1	< 20	> 1	< 20
Cc1cc(Sc2nc(Nc3ccc(N4CCOCC4)cc3)ncc2C)ccc1N [Compound 255, 4-(4-ao-3-methylphenylthio)-5-methyl-N-(4-morpholinophenyl)pyrimidin-2-ae]	< 0.5	> 20	< 20	< 1	< 20
OCc1ccc(Sc2ccnc(Nc3ccc(N4CCOCC4)cc3)n2)cc1 [Compound 67, (4-(2-(4-morpholinophenylao)pyrimidin-4-ylthio)phenyl)methanol]	< 0.5	< 20	< 20	< 0.5	< 20
C=CC(=O)Nc1ccc(Sc2nc(Nc3ccc(N4CCOCC4)cc3)ncc2Br)cc1 [Compound 306, N-(4-(5-bromo-2-(4-morpholinophenylao)pyrimidin-4-ylthio)phenyl)acrylamide]	< 0.1	< 1	> 20	> 1	> 20
C=CC(=O)Nc1ccc(Sc2nc(Nc3ccc(NS(C)(=O)=O)cc3)ncc2C)cc1 [Compound 285, N-(4-(5-methyl-2-(4-(methylsulfonamido)phenylao)pyrimidin-4-ylthio)phenyl)acrylamide]	< 0.1	< 1	< 5	> 1	< 5
CCOC(=O)/C=C/C(=O)Nc1ccc(Sc2nc(Nc3ccc(N4CCOCC4)cc3)ncc2C)cc1 [Compound 385, (E)-ethyl 4-(4-(5-methyl-2-(4-morpholinophenylao)pyrimidin-4-ylthio)phenylao)-4-oxobut-2-enoate]	< 0.1	< 5	> 20	> 1	> 20
C=CC(=O)Nc1ccc(Sc2nc(Nc3ccc(OCCCN(CC)CC)cc3)ncc2C)cc1 [Compound 291, N-(4-(2-(4-(3-(diethylao)propoxy)phenylao)-5-methylpyrimidin-4-ylthio)phenyl)acrylamide]	< 0.1	< 1	< 5	> 1	< 5
C=CC(=O)Nc1ccc(Sc2ccnc(Nc3cc(C)cc(C)c3)n2)cc1 [Compound 82, N-(4-(2-(3,5-dimethylphenylao)pyrimidin-4-ylthio)phenyl)acrylamide]	< 0.1	< 20	< 20	> 1	< 5
Cc1cnc(Nc2ccc(N3CCOCC3)cc2)nc1Sc1ccc(NC(=O)CSCC(=O)O)cc1 [Compound 230, 2-(2-(4-(5-methyl-2-(4-morpholinophenylao)pyrimidin-4-ylthio)phenylao)-2-oxoethylthio)acetic acid]	< 0.1	> 20	> 20	< 0.5	> 20
CC#CC(=O)Nc1ccc(Sc2ccnc(Nc3cccc(N4CCOCC4)c3)n2)cc1 [Compound 233, N-(4-(2-(3-morpholinophenylao)pyrimidin-4-ylthio)phenyl)but-2-ynamide]	< 0.1	< 5	< 5	> 1	< 5
C=CC(=O)Nc1cccc(Sc2ccnc(Nc3cccc(N4CCOCC4)c3)n2)c1 [Compound 110, N-(3-(2-(3-morpholinophenylao)pyrimidin-4-ylthio)phenyl)acrylamide]	< 0.1	< 5	< 20	> 1	< 20
C=CC(=O)Nc1ccc(Sc2nc(Nc3ccc(OCCN4CCOCC4)cc3)ncc2C)cc1 [Compound 290, N-(4-(5-methyl-2-(4-(2-morpholinoethoxy)phenylao)pyrimidin-4-ylthio)phenyl)acrylamide]	< 0.1	< 1	< 5	> 1	< 20
C=CC(=O)Nc1cccc(Nc2nccc(Sc3ccccc3)n2)c1 [Compound 16, N-(3-(4-(phenylthio)pyrimidin-2-ylamino)phenyl)acrylamide]	< 0.1	< 5	< 20	> 1	< 5
CC#CC(=O)Nc1cccc(Nc2nccc(SC)n2)c1 [Compound 8, N-(3-(4-(methylthio)pyrimidin-2-ylao)phenyl)but-2-ynamide]	< 0.1	< 20	< 20	> 1	< 5
